Measured values reported in patent EP4796176A2, “METHOD OF ALLEVIATING JOINT PAIN” (OrthoTrophix, Inc., priority 2017, dated 2026).
Where no end group is shown, it is not given here.

System: subjects with bilateral patello-femoral knee osteoarthritis
Assay: Randomized double-blind placebo-controlled clinical study, safety and tolerability
Assay type: in vivo, human
Experimental: A multicenter, randomized double-blind, placebo controlled study was designed to investigate the safety, tolerability, pharmacokinetics, and efficacy of TPX-100 administered in four weekly doses in subjects with bilateral patello-femoral knee osteoarthritis. The study was conducted under an open IND (investigational new drug application) at CDER (Center for Drug Evaluation and Research) of the U.S. FDA (The United States Food and Drug Administration) in compliance with GCP (Good Clinical Practice) and ICH (International Conference on Harmonization of Technical Requirements for Registration of Pharmaceuticals for Human Use) guidelines. Eighteen (18) orthopedic, rheumatologic and family practice centers in the U.S. participated in the study.
The study was divided into Part A and Part B. The Part A was to evaluate safety of intra-articular (I.A.) administration of TPX-100 at different dosing levels (20, 50, 100, or 200mg per injection in sequential cohorts) in the subjects with osteoarthritis of the knees and to select a dose adopted for the Part B. The Part B was to evaluate safety and efficacy of the selected dose of TPX-100.
Subjects in Part A enrolled in sequential cohorts were randomized to receive 20, 50, 100 or 200 mg of TPX-100 in one knee and identical placebo in the contralateral knee. Active and placebo assignments were randomized, with subject, site, and sponsor blinded as to treatment assignment. A Safety Review Committee (SRC) evaluated safety in each dosing cohort. The SRC assessed safety and dose-limiting toxicities, if evident, and determined whether the next higher dosing regimen might be enrolled. Part A were completed and analyzed with regard to safety prior to dose selection and initiation of Part B. […]
The 200mg dose was selected for Part B based on review and approval by the SRC. […] The combined final number of the subjects that were analyzed for the drug efficacy for 200mg dose of TPX-100 was 93.
On the first dosing day, the randomized subjects were assessed for their general health conditions by physical examinations and vital signs. […] Subjects were monitored for adverse events during the injections and for a few hours after the injections. Vital signs were also monitored after the injections.
Subjects returned to their respective study sites at 3, 6 and 12 months after the first dosing day for follow-up evaluations. In addition, the study sites monitored the subject's condition through telephone contact 9 months after the first dosing day. During the 3, 6, and 12 months post-treatment follow-up on-site visits, subjects were evaluated by physical examination, vital signs, serum chemistry, as well as KOOS. Adverse events and concomitant medications were also recorded. […]

Question: How did the dose-limiting toxicities (Part A, 20, 50, 100 and 200 mg per injection, four weekly intra-articular injections) turn out when TDLQERGDNDISPFSGDGQPFKD-NH2 [TPX-100] was run?
Answer: The dose-limiting toxicities was “no dose-limiting toxicities”.

Question: What about the severe adverse events (throughout the study period) of the same substance?
Answer: Its severe adverse events is “no severe adverse events likely or possibly related to the drug treatment”.

Question: What about the treatment-related adverse events (throughout the study period) of the same substance?
Answer: The treatment-related adverse events was “mild or moderate, transient”.

Question: And the safety and tolerability (throughout the study period (12 months))?
Answer: Its safety and tolerability is “safe and well tolerated”.
